Assays:
corn (variety: Pioneer) [1] = assay: Phytotoxicity Test Example 2: compositions sprayed onto corn plants, plant length; assay type: in vivo; conditions: 2,000 ppm
Experimental: A liquid composition comprising 2,000 ppm of mefentrifluconazole, 10% by volume of an oil adjuvant and water (hereinafter referred to as Present Composition 13) were prepared by diluting mefentrifluconazole SC and an oil adjuvant (COC: Agri-Dex, containing 82% of heavy range paraffinic oil, 17% of surfactant, and 1% of other components, manufactured by Helena) with water and mixing them. Similarly to the Present Composition 13, a liquid compositions (hereinafter referred to as Present Composition 14) were prepared by replacing Agri-Dex with Sundance II (MSO, containing 90% of methylated seed oil and 10% of alkyl and aryl alkoxylates and phosphate esters). Similarly to the Present Composition 13, a liquid composition (hereinafter referred to as Present Composition 15) were prepared by replacing Agri-Dex with Destiny (HSOC, containing 50% of methylated seed oil, 42% of sorbitan fatty acid esters and high fructose corn syrup, and 8% of other ingredients). […]
A soil was filled into a plastic pot, and corn (variety: Pioneer) was seeded therein, and grown in a greenhouse for 4 days. […] After spraying, the plants were placed in the greenhouse for 8 days, then the plant lengths were measured. […]
From the plant lengths in each of the treated plants and the non-treated plants, the relative length of the compositions was determined according to the above “Formula 2”.

corn (variety: Pioneer) [2] = assay: Phytotoxicity Test Example 1: compositions dripped into the whorl of corn plants, plant length; assay type: in vivo; conditions: 10,000 ppm
Experimental: Liquid compositions comprising 10,000 ppm of mefentrifluconazole, 1.25 or 10% by volume of an oil adjuvant and water (hereinafter referred to as Present Composition 7 and Present Composition 8) were prepared by diluting mefentrifluconazole SC and an oil adjuvant (COC: Agri-Dex, containing 82% of heavy range paraffinic oil, 17% of surfactant, and 1% of other components, manufactured by Helena), respectively, with water and mixing them. Similarly to the Present Composition 7 and 8, liquid compositions (hereinafter referred to as Present Composition 9 and Present Composition 10) were prepared by replacing Agri-Dex with Sundance II (MSO, containing 90% of methylated seed oil and 10% of alkyl and aryl alkoxylates and phosphate esters). […]
A soil was filled into a plastic pot, and corn (variety: Pioneer) was seeded therein, and grown in a greenhouse for 4 days. […] After dripping, the plants were placed in the greenhouse for 8 days, then the plant lengths were measured. […]
From the plant lengths in each of the treated plants and the non-treated plants, the relative length of the compositions was determined according to the following “Formula 2”. […]

N#CC(CCc1ccc(Cl)cc1)(Cn1cncn1)c1ccccc1 (stereo not shown) [fenbuconazole]
Effect of addition of oil adjuvants on corn plant length (corn (variety: Pioneer) [1]; oil adjuvants 10% by volume): enhanced the retardation
Effect on plant length without adjuvant (corn (variety: Pioneer) [1]; without adjuvant): did not effect on plant length
Effect of addition of oil adjuvants on retardation of corn plant (corn (variety: Pioneer) [2]; oil adjuvants 1.25 or 10% by volume): severely enhanced the retardation
Retardation of corn plant without adjuvant (corn (variety: Pioneer) [2]; without adjuvant): retarded corn plant slightly
